Test results taken from patent publication US20100004267A1, “LIQUID PREPARATION” (ASUBIO PHARMA CO., LTD., priority 2006, published 2010).

How the values were obtained:
Type in all cases: physicochemical
[1] = Examination of properties of SUN N8075 itself; details: pH around neutrality
[2] = Reduction in surface activity in SUN N8075 aqueous solution (Test example 7); set-up: key: A: Much less foaming than Control; B: Clearly less foaming than Control; Slightly less foaming than Control; D: Comparable to Control; E: More foaming than Control
Protocol: (§1) Into each test compound solution which was prepared in advance to achieve each adding concentration shown in the Table, SUN N8075 was added and dissolved so that the concentration thereof was 5 mg/mL, and the pH value was adjusted to 3 to 4 as appropriate by hydrochloric acid to prepare a sample solution.
(§2) Each 10 mL of sample solution was put into a 10-mL stoppered test tube, and shaken 30 strokes vertically by hand and allowed to stand upright, and under room diffused light, appearance of sample solution after shaking, foaming property (foaming quantity), defoaming time, post standing observation (after standing for 3 days or more) were evaluated.
(§3) As a control, an aqueous solution containing no test substance but containing 5 mg/mL of SUN N8075 was examined in a similar manner.

[3] = as above; set-up: key: A: In 20 minutes; B: In 60 minutes; C: 60 minutes to 3 days; D: Comparable to Control
Protocol: as §1, §2, §3

[4] = Examination on two-component antioxidant sodium bisulfite/L-cysteine hydrochloride monohydrate (Test example 6)
Protocol: According to the formulation of Tables 7 and 8, to 100-150 mL of purified water, sodium bisulfite (Japanese Pharmacopoeia; available from JUNSEI CHEMICAL), L-cysteine hydrochloride monohydrate (available from Nacalai Tesque), and SUN N8075 were added and dissolved in this order, and the volume was made precisely to 200 mL by addition of purified water.
After filtering under reduced pressure, the solution was bubbled with nitrogen gas for 5 minutes (not executed for the case “without nitrogen gas replacement”), and 20 mL of the solution was immediately filled into a brown ampule (Silicoat ampule, brown, 20 mL capacity, available from FUJI GLASS CO., LTD.) replaced with nitrogen gas (not executed for the case “without nitrogen gas replacement”), and then the ampule was sealed. Using autoclave (FLC-M09S30WZ, available from SAKURA SEIKI Co., Ltd.), autoclave sterilization was conducted in a setting condition: 121° C./24 minutes.
For each sample, insoluble foreign matters and odor were evaluated.
Evaluation of insoluble foreign matters was conducted using an appearance checker (under 1,000 Lux).
Also dissolved oxygen concentration in solution was measured.

[5] = sodium bisulfite 0.05% (0.1 g), L-cysteine HCl monohydrate 0.05 g (ratio 1/2), N2 done, dissolved oxygen 0.91 ppm
[6] = sodium bisulfite 0.05% (0.1 g), L-cysteine HCl monohydrate 0.1 g (ratio 1/1), N2 done, dissolved oxygen 0.88 ppm
[7] = sodium bisulfite 0.075% (0.15 g), L-cysteine HCl monohydrate 0.1 g (ratio 2/3), N2 done, dissolved oxygen 1.66 ppm
[8] = sodium bisulfite 0.075% (0.15 g), L-cysteine HCl monohydrate 0.5 g (ratio 1/1), N2 done, dissolved oxygen 0.97 ppm
[9] = sodium bisulfite 0.1% (0.2 g), L-cysteine HCl monohydrate 0.1 g (ratio 1/2), N2 done, dissolved oxygen 1.27 ppm
[10] = sodium bisulfite […] (0.05 g), L-cysteine HCl monohydrate 0.05 g (ratio 1/1), N2 done, dissolved oxygen 0.82 ppm

Cc1cc(OC[C@@H](O)CN2CCN(c3ccc(Cc4ccc(F)cc4)cc3)CC2)c(C)c(C)c1N [SUN N8075, (2S)-1-(4-amino-2,3,5-trimethylphenoxy)-3-{4-[4-(4-fluorobenzyl)phenyl]-1-piperazinyl}-2-propanol dimethane sulfonate]
great: Amount of insoluble matters/after sterilization [4, 5] | Amount of insoluble matters/after sterilization [4, 6] | Amount of insoluble matters/after sterilization [4, 7] | Amount of insoluble matters/after sterilization [4, 8] | Amount of insoluble matters/after sterilization [4, 9] | Amount of insoluble matters/after sterilization [4, 10]
very low: Solubility [1]
Bit: Amount of insoluble matters/after sterilization ([4]; sodium bisulfite 0.075% (0.15 g), L-cysteine HCl monohydrate 0.05 g (ratio 1/3), N2 done, dissolved oxygen 1.39 ppm) | Amount of insoluble matters/after sterilization ([4]; sodium bisulfite […] (0.05 g), L-cysteine HCl monohydrate 0.015 g (ratio 3/10), N2 done, dissolved oxygen 1.88 ppm)
C: Defoaming time ([3]; Chlorobutanol 0.50%) | Defoaming time ([3]; Chlorobutanol […]) | Defoaming time ([3]; Ethanol 1.00%) | Defoaming time ([3]; Glycine 100 mM) | Defoaming time ([3]; Meglumine 25 mM) | Defoaming time ([3]; Methane sulfonic acid 15 mM) | Defoaming time ([3]; Propylene glycol 1.00%) | Defoaming time ([3]; Sodium L-glutamate 30 mM) | Defoaming time ([3]; Sodium chloride 50 mM)
D: Defoaming time ([2]; Chlorobutanol 0.10%) | Defoaming time ([2]; Sodium chloride 25 mM)
Sulfur-: Odor/After sterilization [4, 5] | Odor/After sterilization [4, 6] | Odor/After sterilization [4, 7] | Odor/After sterilization [4, 8] | Odor/After sterilization [4, 10]
bit: Amount of insoluble matters/after sterilization ([4]; sodium bisulfite 0.05% (0.1 g), L-cysteine HCl monohydrate 0.03 g (ratio 3/10), N2 done, dissolved oxygen 1.85 ppm) | Amount of insoluble matters/after sterilization ([4]; sodium bisulfite 0.05% (0.1 g), no L-cysteine HCl monohydrate, N2 done, dissolved oxygen 0.82 ppm) | Amount of insoluble matters/after sterilization ([4]; sodium bisulfite 0.075% (0.15 g), no L-cysteine HCl monohydrate, N2 done, dissolved oxygen 1.24 ppm) | Amount of insoluble matters/after sterilization ([4]; sodium bisulfite 0.1% (0.2 g), no L-cysteine HCl monohydrate, N2 done, dissolved oxygen 1.39 ppm) | Amount of insoluble matters/after sterilization ([4]; sodium bisulfite 0.1% (0.2 g), no L-cysteine HCl monohydrate, N2 not done, dissolved oxygen 5.14 ppm) | Amount of insoluble matters/after sterilization ([4]; sodium bisulfite […] (0.05 g), no L-cysteine HCl monohydrate, N2 done, dissolved oxygen 0.52 ppm)
Sulfur: Odor/After sterilization [4, 9]
